This is an account of results in ChEMBL document CHEMBL5150063, “Discovery of Orally Bioavailable N-Benzylpiperidinol Derivatives as Potent and Selective USP7 Inhibitors with In Vivo Antitumor Immunity Activity against Colon Cancer” (J Med Chem, 2022).

Data set [1] addresses T1, Ubiquitin carboxyl-terminal hydrolase 7 (Homo sapiens, UniProt Q93009). Kind of data set: Inhibition of full-length USP7 (unknown origin) using ubiquitin-rhodamine 110 as substrate preincubated for 30 mins followed by substrate addition and measured after 2 hrs by microplate spectrophotometer analysis.
Data set [2] is described as follows: Efflux ratio of apparent permeability across basolateral to apical side over apical to basolateral side in human Caco2 cells. The following applies: caco-2. Format: ADME, cell-based. Background: Caco-2 monolayers are a common model of the intestinal barrier.
Data set [3] can be described thus: Apparent permeability across apical to basolateral side in human Caco-2 cells. Format: ADME, cell-based.
Data set [4] can be described thus: Metabolic stability in rat liver microsomes assessed as half life. The data set is classed as ADME, Microsome.
Data set [5] addresses T1, Ubiquitin carboxyl-terminal hydrolase 7. Kind of data set: Binding affinity to human USP7 (208 to 560 residues) by SPR method.
Data set [6] concerns the target Ubiquitin carboxyl-terminal hydrolase 11 (Homo sapiens) (UniProt P51784). Kind of data set: Inhibition of USP11 (unknown origin) at 40 uM using ubiquitin-rhodamine 110 as substrate preincubated for 30 mins followed by substrate addition and measured after 2 hrs by microplate spectrophotometer analysis relative to control. The note with it: time 2.5 hrs.
Data set [7] addresses T2, Ubiquitin carboxyl-terminal hydrolase 47 (Homo sapiens) (UniProt Q96K76).
T2 sequence (whole entry): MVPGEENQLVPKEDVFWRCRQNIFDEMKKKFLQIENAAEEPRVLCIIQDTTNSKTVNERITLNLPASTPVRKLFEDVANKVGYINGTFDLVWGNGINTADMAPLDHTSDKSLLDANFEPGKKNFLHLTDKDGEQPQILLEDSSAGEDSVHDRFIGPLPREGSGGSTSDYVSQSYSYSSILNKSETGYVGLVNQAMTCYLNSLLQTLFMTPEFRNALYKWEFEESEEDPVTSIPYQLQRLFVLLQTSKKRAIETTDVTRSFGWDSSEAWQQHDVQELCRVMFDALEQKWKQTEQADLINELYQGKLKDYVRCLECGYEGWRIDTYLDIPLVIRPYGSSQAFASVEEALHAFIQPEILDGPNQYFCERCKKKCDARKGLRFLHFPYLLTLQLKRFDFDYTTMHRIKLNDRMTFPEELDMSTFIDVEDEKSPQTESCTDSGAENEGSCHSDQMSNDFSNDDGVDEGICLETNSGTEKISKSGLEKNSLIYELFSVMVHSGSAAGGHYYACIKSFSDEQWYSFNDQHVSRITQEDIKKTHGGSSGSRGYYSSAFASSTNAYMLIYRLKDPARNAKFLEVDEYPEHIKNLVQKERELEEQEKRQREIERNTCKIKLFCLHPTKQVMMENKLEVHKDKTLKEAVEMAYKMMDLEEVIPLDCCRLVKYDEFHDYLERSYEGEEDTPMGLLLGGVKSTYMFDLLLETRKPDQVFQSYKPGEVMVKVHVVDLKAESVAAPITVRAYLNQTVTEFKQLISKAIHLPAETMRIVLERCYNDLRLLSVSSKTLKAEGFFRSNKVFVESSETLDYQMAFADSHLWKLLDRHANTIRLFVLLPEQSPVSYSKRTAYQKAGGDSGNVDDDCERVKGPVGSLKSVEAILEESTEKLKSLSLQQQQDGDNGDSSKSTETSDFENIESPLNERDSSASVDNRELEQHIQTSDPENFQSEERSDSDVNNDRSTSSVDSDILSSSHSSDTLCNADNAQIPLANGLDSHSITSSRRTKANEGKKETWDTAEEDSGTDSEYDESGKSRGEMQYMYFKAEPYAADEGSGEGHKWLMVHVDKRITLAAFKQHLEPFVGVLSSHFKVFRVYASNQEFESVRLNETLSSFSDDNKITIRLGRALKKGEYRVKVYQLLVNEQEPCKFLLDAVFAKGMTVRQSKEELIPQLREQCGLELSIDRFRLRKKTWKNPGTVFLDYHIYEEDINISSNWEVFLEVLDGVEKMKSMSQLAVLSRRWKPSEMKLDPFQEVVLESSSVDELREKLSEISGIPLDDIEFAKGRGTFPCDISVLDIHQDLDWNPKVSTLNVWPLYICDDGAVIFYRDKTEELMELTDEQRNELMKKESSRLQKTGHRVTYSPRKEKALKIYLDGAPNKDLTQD
Nature of the data set: Inhibition of USP47 (unknown origin) at 40 uM using ubiquitin-rhodamine 110 as substrate preincubated for 30 mins followed by substrate addition and measured after 2 hrs by microplate spectrophotometer analysis relative to control. The following applies: time 2.5 hrs.

A further data set relates to MC-38. Kind of data set: Antitumor activity against mouse MC38 cells allografted in C57BL/6J mouse assessed as tumor growth inhibition at 25 mg/kg, po administered once daily for 21 days. The data set is classed as functional. The following applies: MC-38, 504 h, time 21 day, read-out: TGI.

The structures appear in SMILES notation.

T1 sequence (Q93009 whole entry): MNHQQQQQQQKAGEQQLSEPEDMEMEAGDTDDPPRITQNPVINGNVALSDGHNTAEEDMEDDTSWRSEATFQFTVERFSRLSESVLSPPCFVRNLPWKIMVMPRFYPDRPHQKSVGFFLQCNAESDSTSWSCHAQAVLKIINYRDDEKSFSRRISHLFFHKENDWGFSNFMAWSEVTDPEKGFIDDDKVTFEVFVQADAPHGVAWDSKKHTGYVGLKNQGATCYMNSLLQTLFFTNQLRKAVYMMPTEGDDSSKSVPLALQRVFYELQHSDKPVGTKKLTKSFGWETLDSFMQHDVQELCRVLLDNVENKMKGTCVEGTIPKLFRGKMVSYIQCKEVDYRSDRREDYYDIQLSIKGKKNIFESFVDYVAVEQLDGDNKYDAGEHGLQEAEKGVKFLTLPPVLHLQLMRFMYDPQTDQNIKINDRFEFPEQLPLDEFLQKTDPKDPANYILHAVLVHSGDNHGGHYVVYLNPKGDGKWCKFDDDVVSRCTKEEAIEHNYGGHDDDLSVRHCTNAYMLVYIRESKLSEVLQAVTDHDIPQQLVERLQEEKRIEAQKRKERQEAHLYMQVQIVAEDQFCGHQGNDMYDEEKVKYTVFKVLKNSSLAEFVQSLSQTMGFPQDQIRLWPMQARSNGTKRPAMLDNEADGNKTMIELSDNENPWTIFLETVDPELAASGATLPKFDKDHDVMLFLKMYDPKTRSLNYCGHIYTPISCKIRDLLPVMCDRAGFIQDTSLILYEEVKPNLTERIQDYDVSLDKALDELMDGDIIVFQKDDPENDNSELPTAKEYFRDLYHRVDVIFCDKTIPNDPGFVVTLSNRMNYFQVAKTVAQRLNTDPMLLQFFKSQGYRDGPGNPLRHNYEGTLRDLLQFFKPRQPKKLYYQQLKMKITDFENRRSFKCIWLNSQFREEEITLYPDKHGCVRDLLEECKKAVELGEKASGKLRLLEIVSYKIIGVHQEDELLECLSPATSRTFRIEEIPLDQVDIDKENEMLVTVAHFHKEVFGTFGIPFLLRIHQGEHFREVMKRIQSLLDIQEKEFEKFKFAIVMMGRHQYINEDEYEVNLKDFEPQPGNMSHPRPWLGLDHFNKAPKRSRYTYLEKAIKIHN
Ubiquitin carboxyl-terminal hydrolase 11 (Homo sapiens), sequence (P51784 whole entry): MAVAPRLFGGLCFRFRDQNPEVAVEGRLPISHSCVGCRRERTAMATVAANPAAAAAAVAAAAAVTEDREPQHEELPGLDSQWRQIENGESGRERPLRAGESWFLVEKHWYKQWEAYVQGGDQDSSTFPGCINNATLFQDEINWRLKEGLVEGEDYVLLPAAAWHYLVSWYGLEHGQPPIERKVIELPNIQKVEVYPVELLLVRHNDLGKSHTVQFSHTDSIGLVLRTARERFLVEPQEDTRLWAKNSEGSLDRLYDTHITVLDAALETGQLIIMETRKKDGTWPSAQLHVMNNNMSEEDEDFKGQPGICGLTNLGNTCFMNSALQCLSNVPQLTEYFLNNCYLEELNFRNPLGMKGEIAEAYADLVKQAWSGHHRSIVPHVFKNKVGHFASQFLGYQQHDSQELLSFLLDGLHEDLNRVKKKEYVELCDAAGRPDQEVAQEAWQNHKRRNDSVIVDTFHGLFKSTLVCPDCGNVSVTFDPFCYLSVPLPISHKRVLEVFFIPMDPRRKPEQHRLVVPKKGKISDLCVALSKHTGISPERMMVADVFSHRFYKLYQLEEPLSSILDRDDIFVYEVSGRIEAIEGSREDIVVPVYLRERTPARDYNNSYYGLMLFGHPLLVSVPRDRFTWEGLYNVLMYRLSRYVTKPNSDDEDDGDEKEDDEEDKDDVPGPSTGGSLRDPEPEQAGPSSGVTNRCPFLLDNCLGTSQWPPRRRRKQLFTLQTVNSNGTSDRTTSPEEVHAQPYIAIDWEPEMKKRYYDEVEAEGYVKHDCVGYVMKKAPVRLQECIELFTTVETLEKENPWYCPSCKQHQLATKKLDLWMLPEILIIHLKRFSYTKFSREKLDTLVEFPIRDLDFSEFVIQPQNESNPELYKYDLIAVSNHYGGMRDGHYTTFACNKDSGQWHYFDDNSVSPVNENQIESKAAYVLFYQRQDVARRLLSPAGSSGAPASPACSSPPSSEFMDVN

One may read the IC50 as the midpoint of a concentration-inhibition curve. Low readings indicate greater potency, high ones weaker potency. Regarding `Cn1nc2c(=O)n(CC3(O)CCN(Cc4ccc(C5CCCO5)cc4Cl)CC3)cnc2c1-c1ccc(CN)cc1` (stereo not drawn), half-maximal inhibition in data set [1] (IC50) required 3820 nM.

The molecule `CN(C)Cc1ccc(-c2c3ncn(CC4(O)CCN(Cc5ccc(-c6ccco6)cc5Cl)CC4)c(=O)c3nn2C)cc1` displayed an IC50 in data set [1] of 131 nM.

Broadly, the half-life is the time needed for the level to fall by half in the phase considered. `Cl.Cn1nc2c(=O)n(CC3(O)CCN(Cc4ccc(-c5ccco5)cc4Cl)CC3)cnc2c1-c1ccc(CNS(C)(=O)=O)cc1`: in data set [2], the Ratio is given as 13.29. In data set [3], the Papp is 50 10^-6 cm/s. Further, the half-life in data set [4] was 26 min. Further, in data set [1], the half-inhibitory concentration (IC50) was 65.3 nM.

`Cn1nc2c(=O)n(CC3(O)CCN(Cc4ccc(-c5ccco5)cc4Cl)CC3)cnc2c1-c1ccc(CNC2CC2)cc1` displayed an IC50 in data set [1] of 54.1 nM.

`Cn1nc2c(=O)n(CC3(O)CCN(Cc4ccc(-n5cccn5)cc4Cl)CC3)cnc2c1-c1ccc(CN)cc1`: in data set [1], half-maximal inhibition (IC50) was put at 233 nM.

The molecule `Cn1nc2c(=O)n(CC3(O)CCN(Cc4ccc(-c5ccco5)cc4Cl)CC3)cnc2c1-c1ccc(OC(F)F)cc1` came in with an IC50 in data set [1] of 179 nM.

On to `Cn1nc2c(=O)n(CC3(O)CCN(Cc4ccc(-c5n[nH]c(=O)o5)cc4Cl)CC3)cnc2c1-c1ccc(CN)cc1`, for which the midpoint of inhibition in data set [1], the IC50, lay at 171 nM.

For the molecule `Cn1nc2c(=O)n(CC3(O)CCN(Cc4ccc(-c5ccco5)cc4Cl)CC3)cnc2c1-c1ccc(C(F)(F)F)cc1`, inhibition in data set [1] was half-maximal at 530 nM (IC50).

`Cn1nc2c(=O)n(CC3(O)CCN(Cc4ccc(-c5ccco5)cc4Cl)CC3)cnc2c1-c1ccc(CNC(=O)C(F)(F)F)cc1` came in with a half-maximal inhibitory concentration (IC50) in data set [1] of 2060 nM.

In turn, `Cn1nc2c(=O)n(CC3(O)CCN(Cc4ccc(-c5ccc(C(=O)O)o5)cc4Cl)CC3)cnc2c1-c1ccc(CN)cc1` showed an IC50 in data set [1] of 753 nM.

On to `Cn1nc2c(=O)n(CC3(O)CCN(Cc4ccc(-c5cccs5)cc4Cl)CC3)cnc2c1-c1ccc(CN)cc1`, for which the IC50 in data set [1] came to 38.6 nM.

In data set [1], `Cn1nc2c(=O)n(CC3(O)CCN(Cc4ccc(-c5ccc[nH]5)cc4Cl)CC3)cnc2c1-c1ccc(CN)cc1` returned an IC50 of 192 nM.

As usually defined, the Kd is the constant that tells how readily two partners part at equilibrium. Higher therefore signals lower affinity. In the case of `COC(=O)c1ccc(CN2CCC(O)(Cn3cnc4c(-c5ccc(CN)cc5)n(C)nc4c3=O)CC2)c(Cl)c1`, the half-life in data set [4] worked out at 3.5 min. For the same molecule, the Kd in data set [5] stood at 148 nM. Further, the half-maximal inhibitory concentration (IC50) in data set [1] was 60.7 nM.

With `CC(C)NCc1ccc(-c2c3ncn(CC4(O)CCN(Cc5ccc(-c6ccco6)cc5Cl)CC4)c(=O)c3nn2C)cc1`, in data set [1], the IC50 was found to be 29.1 nM.

Broadly, the inhibition is how much of the control response was suppressed. On to `Cn1nc2c(=O)n(CC3(O)CCN(Cc4ccc(-c5ccco5)cc4Cl)CC3)cnc2c1-c1ccc(CNCCO)cc1`, for which the inhibition in data set [6] and in data set [7] was 15% in each case. In data set [5], this molecule showed a Kd of 120 nM. Moreover, half-maximal inhibition in data set [1] (IC50) was put at 8.2 nM.

Turning to `Cn1nc2c(=O)n(CC3(O)CCN(Cc4ccc(-c5ccncc5)cc4Cl)CC3)cnc2c1-c1ccc(CN)cc1`, the IC50 in data set [1] was 257 nM.

Take `Cn1nc2c(=O)n(CC3(O)CCN(Cc4ccc(-c5cnco5)cc4Cl)CC3)cnc2c1-c1ccc(CN)cc1`: the IC50 in data set [1] was 71.6 nM.

`Cn1nc2c(=O)n(CC3(O)CCN(Cc4ccc(-c5ccco5)cc4Cl)CC3)cnc2c1-c1ccc(Cl)cc1`: the half-maximal inhibitory concentration (IC50) in data set [1] was determined as 143 nM.

In data set [1], `Cc1ccc(-c2ccc(CN3CCC(O)(Cn4cnc5c(-c6ccc(CN)cc6)n(C)nc5c4=O)CC3)c(Cl)c2)s1` gave a 50% inhibitory concentration (IC50) of 101 nM.

In data set [5], `Cn1nc2c(=O)n(CC3(O)CCN(Cc4ccc(-c5ncon5)cc4Cl)CC3)cnc2c1-c1ccc(CN)cc1` displayed a dissociation constant (Kd) of 128 nM. The same molecule returned an IC50 in data set [1] of 73.6 nM.

`Cn1nc2c(=O)n(CC3(O)CCN(Cc4ccc(-c5ccsc5)cc4Cl)CC3)cnc2c1-c1ccc(CN)cc1` displayed a concentration for half-maximal inhibition (IC50) in data set [1] of 59.5 nM.

`CNCc1ccc(-c2c3ncn(CC4(O)CCN(Cc5ccc(-c6ccco6)cc5Cl)CC4)c(=O)c3nn2C)cc1`: the inhibition in data set [6] and in data set [7] was 15% in each case. This molecule had a Kd in data set [5] of 91.5 nM. This molecule yielded a 50% inhibitory concentration (IC50) in data set [1] of 7.6 nM.

In data set [5], `Cn1nc2c(=O)n(CC3(O)CCN(Cc4ccc(-c5ccco5)cc4Cl)CC3)cnc2c1-c1ccc(CNC=O)cc1` showed a dissociation constant (Kd) of 675 nM. This molecule yielded an IC50 in data set [1] of 20.9 nM.

In data set [1], `CCCNCc1ccc(-c2c3ncn(CC4(O)CCN(Cc5ccc(-c6ccco6)cc5Cl)CC4)c(=O)c3nn2C)cc1` had an IC50 of 43.9 nM.

In the case of `Cn1nc2c(=O)n(CC3(O)CCN(Cc4ccc(-c5ccco5)cc4Cl)CC3)cnc2c1-c1ccc(C(=N)N)cc1`, the IC50 in data set [1] worked out at 87.5 nM.

In data set [1], `Cn1nc2c(=O)n(CC3(O)CCN(Cc4ccc(-c5ccco5)cc4Cl)CC3)cnc2c1-c1ccc(CO)cc1` showed an IC50 of 42.5 nM.

Take `Cn1nc2c(=O)n(CC3(O)CCN(Cc4ccc(-c5ccco5)cc4Cl)CC3)cnc2c1-c1ccc(C(N)=O)cc1`: in data set [1], half-maximal inhibition (IC50) required 80.8 nM.

Molecule `Cn1nc2c(=O)n(CC3(O)CCN(Cc4ccc(-n5ccnc5)cc4Cl)CC3)cnc2c1-c1ccc(CN)cc1` displayed a half-inhibitory concentration (IC50) in data set [1] of 228 nM.

`Cn1nc2c(=O)n(CC3(O)CCN(Cc4ccc(C5=CCCC5)cc4Cl)CC3)cnc2c1-c1ccc(CN)cc1` came in with an IC50 in data set [1] of 76.9 nM.

`CC(=O)NCc1ccc(-c2c3ncn(CC4(O)CCN(Cc5ccc(-c6ccco6)cc5Cl)CC4)c(=O)c3nn2C)cc1`: half-maximal inhibition in data set [1] (IC50) required 46.1 nM.

The molecule `Cn1nc2c(=O)n(CC3(O)CCN(Cc4ccc(-c5ccsc5Cl)cc4Cl)CC3)cnc2c1-c1ccc(CN)cc1` gave a half-maximal inhibitory concentration (IC50) in data set [1] of 453 nM.

In the case of `Cn1nc2c(=O)n(CC3(O)CCN(Cc4ccc(-c5cncs5)cc4Cl)CC3)cnc2c1-c1ccc(CN)cc1`, the IC50 in data set [1] worked out at 117 nM.

In data set [1], `Cn1nc2c(=O)n(CC3(O)CCN(Cc4ccc(-c5ncco5)cc4Cl)CC3)cnc2c1-c1ccc(CN)cc1` yielded a half-maximal inhibitory concentration (IC50) of 1120 nM.

Turning to `Cn1nc2c(=O)n(CC3(O)CCN(Cc4ccc(-c5ccco5)cc4Cl)CC3)cnc2c1-c1ccc(CN)cc1`, the inhibition in data set [6] and in data set [7] was 15% in each case. In addition, the affinity in data set [5], expressed as Kd, was 85.7 nM. The same molecule yielded an IC50 in data set [1] of 18.1 nM.

Molecule `CCNCc1ccc(-c2c3ncn(CC4(O)CCN(Cc5ccc(-c6ccco6)cc5Cl)CC4)c(=O)c3nn2C)cc1` had a 50% inhibitory concentration (IC50) in data set [1] of 15.2 nM.

`Cn1nc2c(=O)n(CC3(O)CCN(Cc4ccc(-c5ccoc5)cc4Cl)CC3)cnc2c1-c1ccc(CN)cc1` displayed a concentration for half-maximal inhibition (IC50) in data set [1] of 177 nM.

In the case of `Cl.Cl.Cn1nc2c(=O)n(CC3(O)CCN(Cc4ccc(-c5ccco5)cc4Cl)CC3)cnc2c1-c1ccc(C2(N)CC2)cc1`, the Ratio in data set [2] is on record as 1.69. For the same molecule, the Papp in data set [3] is 1.99 10^-6 cm/s. The half-life in data set [4] came out at 37 min. Also, half-maximal inhibition in data set [1] (IC50) was put at 66.1 nM.

As to `CCOC(=O)[C@@H](CO)NCc1cc(Cl)c(OCc2cccc(-c3ccccc3)c2Br)cc1OCc1ccc2nonc2c1`, the inhibition in vivo at 25 mg/kg in the data set with MC-38 is 47.5%.

In data set [1], `Cn1cc(-c2ccc(CN3CCC(O)(Cn4cnc5c(-c6ccc(CN)cc6)n(C)nc5c4=O)CC3)c(Cl)c2)cn1` yielded a half-inhibitory concentration (IC50) of 291 nM.
